target: T1, human PAH with the R408W mutation (Homo sapiens, UniProt P00439, R408W); test: Cell Based Phenylalanine Flux Assay; details: A375 cells expressing human R408W PAH; 24 hrs with compound, then sepiapterin and 13C9,15N-Phenylalanine for 4 hours; 13C-Tyrosine by LC-MS; average where tested multiple times; read-out: AC50;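 also: Ten-point dose curve from 2-fold serial dilutions, run in duplicate at 0.5% DMSO final, tracer step used 20 µM sepiapterin and 800 µM labeled phenylalanine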
T1 construct: expressed in transfected cells
T1 sequence (P00439 1-452 R408W): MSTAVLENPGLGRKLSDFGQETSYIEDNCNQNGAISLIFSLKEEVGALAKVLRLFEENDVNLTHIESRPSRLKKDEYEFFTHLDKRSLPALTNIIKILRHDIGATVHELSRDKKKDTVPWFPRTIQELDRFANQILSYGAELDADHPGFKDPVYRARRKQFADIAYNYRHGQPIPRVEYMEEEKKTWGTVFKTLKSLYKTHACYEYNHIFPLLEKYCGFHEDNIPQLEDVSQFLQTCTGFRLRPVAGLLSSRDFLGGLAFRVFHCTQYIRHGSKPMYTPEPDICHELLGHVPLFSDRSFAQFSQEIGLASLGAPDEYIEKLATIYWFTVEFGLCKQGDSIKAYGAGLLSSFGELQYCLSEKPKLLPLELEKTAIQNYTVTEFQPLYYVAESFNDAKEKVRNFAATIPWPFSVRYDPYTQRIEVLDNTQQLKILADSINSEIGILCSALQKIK

**Q.** For `CN(C)c1ccc2c(C(=O)N3CCc4[nH]cnc4[C@@H]3c3cc4cccc(Cl)n4n3)cnn2c1` [Example 2475, (R)-(4-(7-chloropyrazolo [1,5-a]pyridin-2-yl)-6,7-dihydro-1H-imidazo[4,5-c]pyridin-5(4H)-yl)(6-(dimethylamino)pyrazolo[1,5-a]pyridin-3-yl)methanone], which AC50 is on record?
**A.** > 5 µM

**Q.** Which AC50 does the source give for `Cc1nnc(C(=O)N2CCc3[nH]cnc3[C@H]2c2cc3c(C4CC4)cccn3n2)o1` [Example 2494, (S)-(4-(4-cyclopropylpyrazolo [1,5-a]pyridin-2-yl)-1,4,6,7-tetrahydro-5H-imidazo [4,5-c]pyridin-5-yl)(5-methyl-1,3,4-oxadiazol-2-yl)methanone] here?
**A.** 1 to 5 µM

**Q.** How did the AC50 turn out when `CC(C)c1cccn2nc([C@@H]3c4nc[nH]c4CCN3c3nnc(-c4cccnn4)o3)cc12` [Example 2512, (S)-2-(4-(4-isopropylpyrazolo [1,5-a]pyridin-2-yl)-1,4,6,7-tetrahydro-5H-imidazo [4,5-c]pyridin-5-yl)-5-(pyridazin-3-yl)-1,3,4-oxadiazole] was run?
**A.** 1 to 5 µM

**Q.** How did the AC50 turn out when “(S)-(6-(methoxymethyl) pyrazolo[1,5-a]pyridin-3-yl)(4- (4-methylpyrazolo[1,5-a] pyridin-2-yl)-6,7-dihydro-1H- imidazo[4,5-c]pyridin- 5(4H)-yl)methanone [Example 1624]” was run?
**A.** 0.5 to 1 µM

Source: US12673961B2 (Agios Pharmaceuticals, Inc., priority 2022, dated 2026)
